Measurements: patent US8354455B2, “Prodrugs containing novel bio-cleavable linkers” (Piramal Enterprises Limited and Apparao Satyam, priority 2004, dated 2013)
Read-outs that look alike come from different tables or passages of the source. Marks after values point to notes of the source that are not given here.

Experiments:
rats [1] = conditions: rat, in vivo, po, 100 mg/kg
[2] = rat, in vivo, po, 35 mg/kg
[3] = tested on: carrageenan-induced rat paw edema; assay: Carrageenan-induced rat paw edema; format: in vivo; conditions: 75 mg/kg equivalent dose of aspirin, p.o.
[4] = In vitro plasma stability; format: in vitro ADME; conditions: rat plasma, 37° C., 30 minutes incubation, HPLC
Text: The compounds were extracted back into acetonitrile with rigorous vortex.

convulsant metrazol [5] = assay: Subcutaneous Metrazol Seizure Threshold Test (scMET), Test 1, mice i.p.; format: in vivo; conditions: Mus musculus, ip, symbol = dose with activity
MES-induced seizures [6] = assay: Maximal Electroshock Test (MES), Test 1, mice i.p.; format: in vivo; conditions: for MES (number of animal protected/number of animal tested): mice, i.p.
rats [7] = assay: Neurotoxicity, rats p.o. (Test 2 and Test 3)
MES-induced seizures [8] = assay: animal or person; format: in vivo, rats
convulsant metrazol [9] = assay: scMET, rats p.o. (Test 3); format: in vivo; conditions: Test 3, rats p.o.
Protocol: Subcutaneous Metrazol Seizure Threshold Test (scMET): Subcutaneous injection of the convulsant metrazol produces clonic seizures in laboratory animals. […] Animals were pretreated with various doses of the test compound given by i.p. injection. At the previously determined Time to Peak Effect (TPE) of the test compound, the dose of metrazol which will produce convulsions in 97% of animals (CD97: 85 mg/kg in mice) was injected into a loose fold of skin in the midline of the neck. The animals were placed in isolation cages to minimize stress and observed for the next 30 minutes for the presence or absence of a seizure. An episode of clonic spasms, approximately […], of the fore and/or hind limbs, jaws, or vibrissae is taken as the end point.
Rats received test compounds orally.

[10] = Test 2, rats p.o., 30 mg/kg, 0.50 h
[11] = Test 2, rats p.o., 30 mg/kg, 1.00 h
[12] = Test 2, rats p.o., 30 mg/kg, 2.00 h
[13] = Test 2, rats p.o., 30 mg/kg, 4.00 h

CC(=O)Oc1ccccc1C(=O)NCCSSCCO[N+](=O)[O-] [I-C1-NOPD6]
ulcers (in words) (rats [1]): none of the animals treated with the test compounds showed any signs of development of ulcers
prodrug or salicylate found in plasma (in words) [2]: neither the prodrug nor the salicylate was found in the plasma

CC(=O)Oc1ccccc1C(=O)O [Aspirin, reference compound]
anti-inflammatory activity (in words) [3]: anti-inflammatory activity from 1 hr through 6 hr with peak maximal activity at 4 hr
Rat paw edema (% inhibition) 1 hour ([3]; Mean ± SEM, n = 6): 31.0 ± 7.2%
Rat paw edema (% inhibition) 2 hour ([3]; Mean ± SEM, n = 6): 52.5 ± 3.4%
Rat paw edema (% inhibition) 4 hour ([3]; Mean ± SEM, n = 6): 60.7 ± 6.9%
Rat paw edema (% inhibition) 6 hour ([3]; Mean ± SEM, n = 6): 42.8 ± 6.9%
ulcers (in words) (rats [1]): severe haemorrhagic lesions
salicylate release / absorption profile (in words) ([2]; both, Sprague-Dawley): highest during 0.5-6.0 hrs
release of parent drug / conversion to salicylate (in words) [4]: completely metabolized to salicylate

Nc1nc(NC(=O)OCCSSCCO)nnc1-c1cccc(Cl)c1Cl [I-A1-PD4]
minimal effective dose (convulsant metrazol [5]; 0.5 h, read-out: ScMET 0.5 h, mice, i.p., 0.5 h): > 300 mg/kg
minimal effective dose (convulsant metrazol [5]; 4 h, read-out: ScMET 4.0 h, mice, i.p., 4.0 h): > 300 mg/kg
toxicity (in words) (mice; Test 1, mice i.p.): no or mild toxicity
Rotorod Toxicity 0.5 h (mice; mice, i.p., 0.5 h, symbol = dose with toxicity): — (— = no activity or no toxicity at 300 mg/kg)
Rotorod Toxicity 4.0 h (mice; mice, i.p., 4.0 h, symbol = dose with toxicity): — (— = no activity or no toxicity at 300 mg/kg)
activity in MES model (in words) (MES-induced seizures [6]; Test 1, mice i.p.): active in MES
MES (number of animal protected/number of animal tested) (MES-induced seizures [6]; 0.5 h, 100 mg/kg (++)): (1/7)
MES (number of animal protected/number of animal tested) (MES-induced seizures [6]; 0.5 h, 300 mg/kg (+)): (2/5)
MES (number of animal protected/number of animal tested) (MES-induced seizures [6]; 4.0 h, 30 mg/kg (+++)): (1/1)
MES (number of animal protected/number of animal tested) (MES-induced seizures [6]; 4.0 h, 100 mg/kg (++)): (3/3)
MES (number of animal protected/number of animal tested) (MES-induced seizures [6]; 4.0 h, 300 mg/kg (+)): (1/1)
Toxicity (number of animals exhibiting toxicity/number of animals tested) (rats [7]; [10]): 0/4
Toxicity (number of animals exhibiting toxicity/number of animals tested) (rats [7]; [11]): 0/4
Toxicity (number of animals exhibiting toxicity/number of animals tested) (rats [7]; [12]): 0/4
Toxicity (number of animals exhibiting toxicity/number of animals tested) (rats [7]; [13]): 0/4
Toxicity (number of animals exhibiting toxicity/number of animals tested) (rats [7]; Test 3, rats p.o., 100 mg/kg, 0.25 h): 0/4 (100)
Toxicity (number of animals exhibiting toxicity/number of animals tested) (rats [7]; Test 3, rats p.o., 100 mg/kg, 0.5 h): 0/4 (100)
Toxicity (number of animals exhibiting toxicity/number of animals tested) (rats [7]; Test 3, rats p.o., 100 mg/kg, 1.0 h): 0/4 (100)
Toxicity (number of animals exhibiting toxicity/number of animals tested) (rats [7]; Test 3, rats p.o., 100 mg/kg, 2.0 h): 0/4 (100)
ED50 (MES-induced seizures [8]; Rattus norvegicus, po, MES model, rats p.o., at time of peak effect): 6.55 mg/kg
MES (number of animal protected/number of animal tested) (MES-induced seizures [8]; [10]): 0/4
MES (number of animal protected/number of animal tested) (MES-induced seizures [8]; [11]): 1/4
MES (number of animal protected/number of animal tested) (MES-induced seizures [8]; [12]): 3/4
MES (number of animal protected/number of animal tested) (MES-induced seizures [8]; [13]): 4/4
MES (number of animal protected/number of animal tested) (MES-induced seizures [8]; Test 3 ED50 quantification, rats p.o., 4 h, 1.9 mg/kg): 0/8
MES (number of animal protected/number of animal tested) (MES-induced seizures [8]; Test 3 ED50 quantification, rats p.o., 4 h, 3.8 mg/kg): 4/8
MES (number of animal protected/number of animal tested) (MES-induced seizures [8]; Test 3 ED50 quantification, rats p.o., 4 h, 7.5 mg/kg): 4/8
MES (number of animal protected/number of animal tested) (MES-induced seizures [8]; Test 3 ED50 quantification, rats p.o., 4 h, 15 mg/kg): 7/8
MES (number of animal protected/number of animal tested) (MES-induced seizures [8]; Test 3 ED50 quantification, rats p.o., 4 h, 30 mg/kg): 7/8
MES (number of animal protected/number of animal tested) (MES-induced seizures [8]; Test 3 time to peak effect, rats p.o., 10 mg/kg, 4.0 h): 4/4
MES (number of animal protected/number of animal tested) (MES-induced seizures [8]; Test 3 time to peak effect, rats p.o., 10 mg/kg, 6.0 h): 3/4
MES (number of animal protected/number of animal tested) (MES-induced seizures [8]; Test 3 time to peak effect, rats p.o., 10 mg/kg, 8.0 h): 2/4
MES (number of animal protected/number of animal tested) (MES-induced seizures [8]; Test 3 time to peak effect, rats p.o., 10 mg/kg, 24 h): 0/4
MES (number of animal protected/number of animal tested) (MES-induced seizures [8]; Test 3 time to peak effect, rats p.o., 30 mg/kg, 0.25 h): 2/4
MES (number of animal protected/number of animal tested) (MES-induced seizures [8]; Test 3 time to peak effect, rats p.o., 30 mg/kg, 0.5 h): 2/4
MES (number of animal protected/number of animal tested) (MES-induced seizures [8]; Test 3 time to peak effect, rats p.o., 30 mg/kg, 1.0 h): 2/4
MES (number of animal protected/number of animal tested) (MES-induced seizures [8]; Test 3 time to peak effect, rats p.o., 30 mg/kg, 2.0 h): 2/4
MES (number of animal protected/number of animal tested) (MES-induced seizures [8]; Test 3 time to peak effect, rats p.o., 30 mg/kg, 4.0 h): 4/4
ScMET (50 mg/kg) (number of animal protected/number of animal tested) (convulsant metrazol [9]; 0.25 h): 1/4^f
ScMET (50 mg/kg) (number of animal protected/number of animal tested) (convulsant metrazol [9]; 0.5 h): 0/4
ScMET (50 mg/kg) (number of animal protected/number of animal tested) (convulsant metrazol [9]; 1.0 h): 2/4
ScMET (50 mg/kg) (number of animal protected/number of animal tested) (convulsant metrazol [9]; 2.0 h): 1/4^g
ScMET (50 mg/kg) (number of animal protected/number of animal tested) (convulsant metrazol [9]; 4.0 h): 0/4
